Laboratory results taken from patent US9994571B2, “10-substituted morphinan hydantoins” (Purdue Pharma L.P., priority 2013, dated 2018).
Read-outs that look alike come from different tables or passages of the source.

How the values were obtained:
κ opioid receptor [1] = target: T1, κ opioid receptor (Homo sapiens (Human), UniProt P41145); assay: κ-opioid receptor radioligand dose-displacement binding assay ([3H]-U69,593); details: binding assays using HEK-293 cells
Description: Membranes from HEK-293 cells, CHO or U-2 OS cells expressing the recombinant human κ opioid receptor (κ) were prepared by lysing cells in ice cold hypotonic buffer (2.5 mM MgCl2, 50 mM HEPES, pH 7.4) (10 mL/10 cm dish) followed by homogenization with a tissue grinder/Teflon pestle. Membranes from a cell line naturally expressing kappa opioid receptor can also be used. Membranes were collected by centrifugation at 30,000×g for 15 min at 4° C. and pellets were resuspended in hypotonic buffer to a final concentration of 1-3 mg/mL. Protein concentrations were determined using the BioRad protein assay reagent with bovine serum albumen as standard. Aliquots of K receptor membranes were stored at −80° C.
Radioligand dose displacement assays used 0.4 nM [^3H]-U69,593 (GE Healthcare, Piscataway, N.J.; 40 Ci/mmole) with 15 μg membrane protein (recombinant κ opioid receptor expressed in HEK 293 cells; in-house prep) in a final volume of 200 μl binding buffer (5% DMSO, 50 mM Trizma base, pH 7.4). Non-specific binding was determined in the presence of 10 μM unlabeled naloxone or U69,593. All reactions were performed in 96-well polypropylene plates for 1 hour at a temperature of about 25° C. Binding reactions were terminated by rapid filtration onto 96-well Unifilter GF/C filter plates (Perkin Elmer, Shelton, Conn.) presoaked in 0.5% polyethylenimine (Sigma). Harvesting was performed using a 96-well tissue harvester (Perkin Elmer, Shelton, Conn.) followed by five filtration washes with 200 μl ice-cold binding buffer. Filter plates were subsequently dried at 50° C. for 1-2 hours. Fifty μl/well scintillation cocktail (Perkin Elmer, Shelton, Conn.) was added and plates were counted in a Packard Top-Count for 1 min/well.
(§1) In TABLE 1, binding affinity of certain Compounds of the Invention to the μ- and κ-opioid receptors was determined as described above for binding assays using HEK-293 cells.

μ-opioid receptor [2] = target: T2, μ-opioid receptor (Homo sapiens (Human), UniProt P35372); assay: μ-opioid receptor radioligand dose-displacement binding assay ([3H]-diprenorphine); details: binding assays using HEK-293 cells
Description: Radioligand dose-displacement binding assays for μ-opioid receptors used 0.3 nM [^3H]-diprenorphine (Perkin Elmer, Shelton, Conn.), with […] membrane protein/well in a final volume of 500 μl binding buffer (10 mM MgCl2, 1 mM EDTA, 5% DMSO, 50 mM HEPES, pH 7.4). Reactions were carried out in the absence or presence of increasing concentrations of unlabeled naloxone. All reactions were conducted in 96-deep well polypropylene plates for 2 hours at room temperature. Binding reactions were terminated by rapid filtration onto 96-well Unifilter GF/C filter plates (Perkin Elmer, Shelton, Conn.), presoaked in 0.5% polyethylenimine using a 96-well tissue harvester (Perkin Elmer, Shelton, Conn.) followed by performing three filtration washes with 500 μl of ice-cold binding buffer. Filter plates were subsequently dried at 50° C. for 2-3 hours. BetaScint scintillation cocktail (Perkin Elmer, Shelton, Conn.) was added (50 μl/well), and plates were counted using a Packard Top-Count for 1 min/well. The data were analyzed using the one-site competition curve fitting functions in GraphPad PRISM™ v. 3.0 or higher (San Diego, Calif.), or an in-house function for one-site competition curve-fitting.
as §1

κ opioid receptor [3] = target: T1, κ opioid receptor; assay: κ-opioid receptor [35S]GTPγS functional assay; format: biochemical
Description: Functional [^35S]GTPγS binding assays were conducted as follows. κ opioid receptor membrane solution was prepared by sequentially adding final concentrations of 0.026 μg/μl κ membrane protein (in-house), 10 μg/mL saponin, 3 μM GDP and 0.20 nM [^35S]GTPγS to binding buffer (100 mM NaCl, 10 mM MgCl2, 20 mM HEPES, pH 7.4) on ice. The prepared membrane solution (190 μl/well) was transferred to 96-shallow well polypropylene plates containing 10 μl of 20× concentrated stock solutions of agonist prepared in DMSO. Plates were incubated for 30 min at a temperature of about 25° C. with shaking. Reactions were terminated by rapid filtration onto 96-well Unifilter GF/B filter plates (Perkin Elmer, Shelton, Conn.) using a 96-well tissue harvester (Packard) and followed by three filtration washes with 200 μl ice-cold binding buffer (10 mM NaH2PO4, 10 mM Na2HPO4, pH 7.4). Filter plates were subsequently dried at 50° C. for 2-3 hours. Fifty μl/well scintillation cocktail (Perkin Elmer, Shelton, Conn.) was added and plates were counted in a Packard Top-Count for 1 min/well.
κ GTP EC50 is the concentration of a compound providing 50% of the maximal response for the compound at a K receptor.
κ GTP Emax (%) is the maximal effect elicited by a compound relative to the effect elicited by U69,593.
(§2) In TABLE 2, activity response of certain Compounds of the Invention to the μ- and κ-opioid receptors was determined as described above for functional assays using U-2 OS cells.

μ-opioid receptor [4] = target: T2, μ-opioid receptor; assay: μ-opioid receptor [35S]GTPγS functional assay; format: biochemical; details: functional assays using U-2 OS cells
Description: [^35S]GTPγS functional assays were conducted using freshly thawed μ-receptor membranes prepared in-house from a cell line expressing recombinant μ opioid receptor in a HEK-293, CHO or U-2 OS cell background, or purchased from a commercial source (Perkin Elmer, Shelton, Conn.; or DiscovRx, Fremont, Calif.). Assay reactions were prepared by sequentially adding the following reagents to binding buffer (100 mM NaCl, 10 mM MgCl2, 20 mM HEPES, pH 7.4) on ice (final concentrations indicated): membrane protein (0.026 mg/mL), saponin ([…]), GDP ([…]) and [^35S]GTPγS (0.20 nM; Perkin Elmer, Shelton, Conn.). The prepared membrane solution (190 l/well) was transferred to 96-shallow well polypropylene plates containing 10 μl of 20× concentrated stock solutions of the agonist [D-Ala^2, N-methyl-Phe^4 Gly-ol^5]-enkephalin (DAMGO) prepared in dimethyl sulfoxide (DMSO). Plates were incubated for 30 min at about 25° C. with shaking. Reactions were terminated by rapid filtration onto 96-well Unifilter GF/B filter plates (Perkin Elmer, Shelton, Conn.) using a 96-well tissue harvester (Perkin Elmer, Shelton, Conn.) followed by three filtration washes with 200 μl of ice-cold wash buffer (10 mM NaH2PO4, 10 mM Na2HPO4, pH 7.4). Filter plates were subsequently dried at 50° C. for 2-3 hours. BetaScint scintillation cocktail (Perkin Elmer, Shelton, Conn.) was added (50 μl/well) and plates were counted using a Packard Top-Count for 1 min/well. Data were analyzed using the sigmoidal dose-response curve fitting functions in GraphPad PRISM v. 3.0, or an in-house function for non-linear, sigmoidal dose-response curve-fitting.
μ GTP EC50 is the concentration of a compound providing 50% of the maximal response for the compound at a μ-opioid receptor.
μ GTP Emax (%) is the maximal effect elicited by a compound relative to the effect elicited by DAMGO, a standard μ agonist. Generally, the μ GTP Emax (%) value measures the efficacy of a compound to treat or prevent pain or other Conditions.
as §2

[5] = bound given in μM, read-out: Opioid Receptor Ki κ
[6] = bound given in μM, read-out: Opioid Receptor Ki μ
[7] = read-out: Opioid Receptor Ki (nM) κ
[8] = read-out: Opioid Receptor Ki (nM) μ
[9] = functional assays using U-2 OS cells, relative to the effect elicited by U69,593

Compound | Ki (κ opioid receptor [1]; [5]) | Ki (μ-opioid receptor [2]; [6]) | Ki (κ opioid receptor [1]; [7]) | further results
COc1ccc2c3c1O[C@@H]1[C@]34CCN(CC3CC3)[C@H](C2=O)[C@]4(O)CC[C@]12NC(=O)NC2=O [Compound 8, (4S,4′S,4a′S,7a′R,12b′S)-3′-(cyclopropylmethyl)-4a′-hydroxy-9′-methoxy-2′,3′,4′,4a′,5′,6′-hexahydro-1′H,7a′H-spiro[imidazolidine-4,7′-[4,12]methanobenzofuro[3,2-e]isoquinoline]-2,5,13′-trione] | > 20 µM | > 20 µM |  | 
COc1ccc2c(c1)[C@]13CCN(CC4CC4)[C@H]([C@@H]2O)[C@]1(O)CC[C@@]1(C3)NC(=O)NC1=O [Compound 7, (4bR,4′S,8aS,9R,10R)-11-(cyclopropylmethyl)-8a,10-dihydroxy-3-methoxy-5,7,8,8a,9,10-hexahydrospiro[9,4b-(epiminoethano)phenanthrene-6,4′-imidazolidine]-2′,5′-dione] | > 20 µM | > 20 µM |  | 
O=C1NC(=O)[C@@]2(CC[C@@]3(O)[C@H]4[C@H](O)c5ccc(O)c6c5[C@@]3(CCN4CC3CC3)[C@H]2O6)N1 [Compound 16, (4S,4′R,4a′S,7a′R,12b′S,13′R)-3′-(cyclopropylmethyl)-4a′,9′,13′-trihydroxy-2′,3′,4′,4a′,5′,6′-hexahydro-1′H,7a′H-spiro[imidazolidine-4,7′-[4,12]methanobenzofuro [3,2-e]isoquinoline]-2,5-dione] | > 20 µM | > 20 µM |  | 
COc1ccc2c3c1O[C@@H]1[C@]34CCN(CC3CC3)[C@H]([C@@H]2O)[C@]4(O)CC[C@]12NC(=O)NC2=O (stereo in doubt) [Compound 9, (4S,4′R,4a′S,7a′R,12b′S,13′R)-3′-(cyclopropylmethyl)-4a′,13′-dihydroxy-9′-methoxy-2′,3′,4′,4a′,5′,6′-hexahydro-1′H,7a′H-spiro[imidazazolidine-4,7′-[4,12]methanobenzofuro[3,2-e]isoquinoline]-2,5-dione] | > 20 µM | > 20 µM |  | 
O=C1NC(=O)[C@@]2(CC[C@@]3(O)[C@H]4C(=O)c5ccc(O)c6c5[C@@]3(CCN4CC3CC3)[C@H]2O6)N1 [Compound 15, (4S,4′S,4a′S,7a′R,12b′S)-3′-(cyclopropylmethyl)-4a′,9′-dihydroxy-2′,3′,4′,4a′,5′,6′-hexahydro-1′H,7a′H-spiro [imidazolidine-4,7′-[4,12]methanobenzofuro [3,2-e]isoquinoline]-2,5,13′-trione] |  |  | 2.52 ± 0.708 µM | Ki (μ-opioid receptor [2]; [8]): 15.4 ± 3.13 µM
COc1ccc2c(c1)[C@]13CCN(CC4CC4)[C@H](C2=O)[C@]1(O)CC[C@@]1(C3)NC(=O)NC1=O [Compound 6, (4bR,4′S,8aS,9S)-11-(cyclopropylmethyl)-8a-hydroxy-3-methoxy-7,8,8a,9-tetrahydrospiro[9,4b-(epiminoethano)phenanthrene-6,4′-imidazolidine]-2′,5′,10(5H)-trione] |  | > 20 µM | 1.05 ± 0.0846 µM | 
COc1ccc2c(c1)[C@]13CCN(C)[C@H]([C@@H]2O)[C@]1(O)CC[C@@]1(C3)NC(=O)NC1=O [Compound 12, (4bR,4′S,8aS,9R,10R)-8a,10-dihydroxy-3-methoxy-11-methyl-5,7,8,8a,9,10-hexahydrospiro[9,4b-(epiminoethano)phenanthrene-6,4′-imidazolidine]-2′,5′-dione] | > 20 µM |  |  | Ki (μ-opioid receptor [2]; [8]): 12.6 µM
(4bR,4′S,8aS,9S,10R)-11-(cyclopropylmethyl)-10-fluoro-8a-hydroxy-3-methoxy-5,7,8,8a,9,10-tetrahydrospiro [9,4b-(epiminoethano)phenanthrene-6,4′-imidazolidine]-2′,5′-dione [Compound 18] |  |  |  | EC50 (κ opioid receptor [3]; functional assays using U-2 OS cells, read-out: Opioid Receptor κ EC50): 1.48 ± 0.125 µM; Opioid Receptor κ Emax (%) (κ opioid receptor [3]; [9]): 81.7 ± 0.88%; EC50 (μ-opioid receptor [4]; read-out: Opioid Receptor μ EC50): 1.55 ± 0.184 µM; Opioid Receptor μ Emax (%) (μ-opioid receptor [4]; relative to the effect elicited by DAMGO): 14.7 ± 0.33%
COc1ccc2c(c1)[C@]13CCN(CC4CC4)[C@H]([C@@H]2O)[C@@H]1CC[C@@]1(C3)NC(=O)NC1=O [Compound 10, (4bS,4′S,8aR,9S,10R)-11-(cyclopropylmethyl)-10-hydroxy-3-methoxy-5,7,8,8a,9,10-hexahydrospiro[9,4b-(epiminoethano)phenanthrene-6,4′-imidazolidine]-2′,5′-dione] |  | > 20 µM | 3.58 ± 0.647 µM | 
O=C1NC(=O)[C@@]2(CC[C@@]3(O)[C@H]4[C@H](O)c5ccc(O)cc5[C@@]3(CCN4CC3CC3)C2)N1 [Compound 14, (4bR,4′S,8aS,9R,10R)-11-(cyclopropylmethyl)-3,8a,10-trihydroxy-5,7,8,8a,9,10-hexahydrospiro[9,4b-(epiminoethano)phenanthrene-6,4′-imidazolidine]-2′,5′-dione] |  |  | 0.0781 ± 0.021 µM | EC50 (κ opioid receptor [3]): 0.183 ± 0.0173 µM; Emax (κ opioid receptor [3]; [9]): 111 ± 2.91%; Ki (μ-opioid receptor [2]; [8]): 1.02 ± 0.0521 µM
COc1ccc2c(c1)[C@]13CCN(C)[C@H](C2=O)[C@]1(O)CC[C@@]1(C3)NC(=O)NC1=O [Compound 11, (4bR,4′S,8aS,9S)-8a-hydroxy-3-methoxy-11-methyl-7,8,8a,9-tetrahydrospiro [9,4b-(epiminoethano)phenanthrene-6,4′-imidazolidine]-2′,5′,10(5H)-trione] | > 20 µM | > 20 µM |  | 
